Columns and labels:
[1] = Narrow-range pH-stability profiling at 60° C.; assay type: physicochemical
Description: (§1) The drug is monitored at a detection wavelength of 232 nm.
All samples were stored in the dark.
The phosphate buffers were prepared as previously described. […] Measurement of sample pH was done after HPLC analysis.
In order to precisely define the most favorable pH, a stronger stressing condition was needed to generate a greater extent of degradation in the lower pH region. For this study, the incubation condition was shifted from 40° C. to 60° C. […] Since the extent of degradation after fourteen (14) days was still less than twenty percent (20%) in most samples, zero-order rate kinetics was used for the degradation curves (concentration versus time). The calculated rate constant was plotted against pH to provide the narrow-range pH-stability profile.

[2] = Effect of buffer anion on stability, pH 3, 60° C.; assay type: physicochemical
Description: as §1
Tightly sealed glass vials containing the test solutions were placed in an oven at 40° C. or 60° C. All samples were stored in the dark. Aliquots were removed at designated time points for HPLC analysis and pH measurement.
The test buffers included 50 mM sodium phosphate, 50 mM sodium acetate, 50 mM sodium lactate, 50 mM sodium citrate, and 50 mM sodium succinate buffers at pH 3.
The phosphate and acetate buffers were prepared as described above. The citrate buffer was prepared by adding 9.60 g of citric acid to water, adjusting the pH with 2 N NaOH to pH 3, and bringing the volume to 1 L in a volumetric flask. The lactate buffer was prepared by adding 2.25 g of lactic acid to water, adjusting the pH with 2 N NaOH to pH 3, and bringing the volume to 1L in a volumetric flask. The succinate buffer was prepared by adding 2.95 g succinic acid to water, adjusting the pH with 2 N NaOH to pH 3, and bringing the volume to 1 L in a volumetric flask.
Measurements of sample pH were done after HPLC analysis.

[3] = tested on: anesthesia by lignocaine admixed with epinephrine; details: 0.5-1.5 mg, Example 1, Table 1 of the '714 patent; cited from earlier work
[4] = Sodium Phosphate Buffer pH 2.0, 60° C., Day 0
[5] = Sodium Phosphate Buffer pH 2.0, 60° C., Day 2
[6] = Sodium Phosphate Buffer pH 2.0, 60° C., Day 7
[7] = Sodium Phosphate Buffer pH 2.0, 60° C., Day 14
[8] = Sodium Phosphate Buffer pH 2.5, 60° C., Day 0
[9] = Sodium Phosphate Buffer pH 2.5, 60° C., Day 2
[10] = Sodium Phosphate Buffer pH 2.5, 60° C., Day 7
[11] = Sodium Phosphate Buffer pH 2.5, 60° C., Day 14
[12] = Sodium Phosphate Buffer pH 3.0, 60° C., Day 0
[13] = Sodium Phosphate Buffer pH 3.0, 60° C., Day 2
[14] = Sodium Phosphate Buffer pH 3.0, 60° C., Day 7
[15] = Sodium Phosphate Buffer pH 3.0, 60° C., Day 14
[16] = Sodium Phosphate Buffer pH 3.4, 60° C., Day 0
[17] = Sodium Phosphate Buffer pH 3.4, 60° C., Day 2
[18] = Sodium Phosphate Buffer pH 3.4, 60° C., Day 7
[19] = Sodium Phosphate Buffer pH 3.4, 60° C., Day 14
[20] = Sodium Phosphate Buffer pH 4.0, 60° C., Day 0
[21] = Sodium Phosphate Buffer pH 4.0, 60° C., Day 2
[22] = Sodium Phosphate Buffer pH 4.0, 60° C., Day 7
[23] = Sodium Phosphate Buffer pH 4.0, 60° C., Day 14
[24] = 50 mM Acetate (sodium salt) pH 3.0, 60° C., Day 0
[25] = 50 mM Acetate (sodium salt) pH 3.0, 60° C., Day 2
[26] = 50 mM Acetate (sodium salt) pH 3.0, 60° C., Day 7
[27] = 50 mM Acetate (sodium salt) pH 3.0, 60° C., Day 14
[28] = 50 mM Phosphate (sodium salt) pH 3.0, 60° C., Day 0
[29] = 50 mM Phosphate (sodium salt) pH 3.0, 60° C., Day 2
[30] = 50 mM Phosphate (sodium salt) pH 3.0, 60° C., Day 7
[31] = 50 mM Phosphate (sodium salt) pH 3.0, 60° C., Day 14

Structure (SMILES): Cc1ccc(N(CC2=NCCN2)c2cccc(O)c2)cc1 [Phentolamine, phentolamine]
- pH at which most stable ([1]; 50 mM sodium phosphate, 60° C., FIG. 2): 3.5
- Phentolamine Concentration [1, 4]: 98 µg/mL
- Phentolamine Purity [1, 4]: 100 % peak area
- Phentolamine Concentration [1, 5]: 98 µg/mL
- Phentolamine Purity [1, 5]: 99 % peak area
- Phentolamine Concentration [1, 6]: 93 µg/mL
- Phentolamine Purity [1, 6]: 96 % peak area
- Phentolamine Concentration [1, 7]: 81 µg/mL
- Phentolamine Purity [1, 7]: 92 % peak area
- Phentolamine Concentration [1, 8]: 99 µg/mL
- Phentolamine Purity [1, 8]: 99 % peak area
- Phentolamine Concentration [1, 9]: 96 µg/mL
- Phentolamine Purity [1, 9]: 97 % peak area
- Phentolamine Concentration [1, 10]: 78 µg/mL
- Phentolamine Purity [1, 10]: 92 % peak area
- Phentolamine Concentration [1, 11]: 79 µg/mL
- Phentolamine Purity [1, 11]: 86 % peak area
- Phentolamine Concentration [1, 12]: 96 µg/mL
- Phentolamine Purity [1, 12]: 99 % peak area
- Phentolamine Concentration [1, 13]: 93 µg/mL
- Phentolamine Purity [1, 13]: 97 % peak area
- Phentolamine Concentration [1, 14]: 91 µg/mL
- Phentolamine Purity [1, 14]: 95 % peak area
- Phentolamine Concentration [1, 15]: 84 µg/mL
- Phentolamine Purity [1, 15]: 91 % peak area
- Phentolamine Concentration [1, 16]: 97 µg/mL
- Phentolamine Purity [1, 16]: 99 % peak area
- Phentolamine Concentration [1, 17]: 95 µg/mL
- Phentolamine Purity [1, 17]: 98 % peak area
- Phentolamine Concentration [1, 18]: 96 µg/mL
- Phentolamine Purity [1, 18]: 97 % peak area
- Phentolamine Concentration [1, 19]: 91 µg/mL
- Phentolamine Purity [1, 19]: 94 % peak area
- Phentolamine Concentration [1, 20]: 97 µg/mL
- Phentolamine Purity [1, 20]: 99 % peak area
- Phentolamine Concentration [1, 21]: 95 µg/mL
- Phentolamine Purity [1, 21]: 98 % peak area
- Phentolamine Concentration [1, 22]: 94 µg/mL
- Phentolamine Purity [1, 22]: 97 % peak area
- Phentolamine Concentration [1, 23]: 89 µg/mL
- Phentolamine Purity [1, 23]: 96 % peak area
- Phentolamine Concentration [2, 24]: 96 µg/mL
- Phentolamine Purity [2, 24]: 100 % peak area
- Phentolamine Concentration [2, 25]: 95 µg/mL
- Phentolamine Purity [2, 25]: 98 % peak area
- Phentolamine Concentration [2, 26]: 94 µg/mL
- Phentolamine Purity [2, 26]: 97 % peak area
- Phentolamine Concentration [2, 27]: 89 µg/mL
- Phentolamine Purity [2, 27]: 96 % peak area
- Phentolamine Concentration ([2]; 50 mM Citrate (sodium salt) pH 3.0, 60° C., Day 0): 93 µg/mL
- Phentolamine Concentration ([2]; 50 mM Citrate (sodium salt) pH 3.0, 60° C., Day 2): 87 µg/mL
- Phentolamine Concentration ([2]; 50 mM Citrate (sodium salt) pH 3.0, 60° C., Day 7): 73 µg/mL
- Phentolamine Concentration ([2]; 50 mM Citrate (sodium salt) pH 3.0, 60° C., Day 14): 62 µg/mL
- Phentolamine Concentration ([2]; 50 mM Lactate (sodium salt) pH 3.0, 60° C., Day 0): 97 µg/mL
- Phentolamine Concentration ([2]; 50 mM Lactate (sodium salt) pH 3.0, 60° C., Day 2): 94 µg/mL
- Phentolamine Concentration ([2]; 50 mM Lactate (sodium salt) pH 3.0, 60° C., Day 7): 91 µg/mL
- Phentolamine Concentration ([2]; 50 mM Lactate (sodium salt) pH 3.0, 60° C., Day 14): 83 µg/mL
- Phentolamine Concentration [2, 28]: 96 µg/mL
- Phentolamine Purity [2, 28]: 99 % peak area
- Phentolamine Concentration [2, 29]: 93 µg/mL
- Phentolamine Purity [2, 29]: 97 % peak area
- Phentolamine Concentration [2, 30]: 91 µg/mL
- Phentolamine Purity [2, 30]: 95 % peak area
- Phentolamine Concentration [2, 31]: 84 µg/mL
- Phentolamine Purity [2, 31]: 91 % peak area
- Phentolamine Concentration ([2]; 50 mM Succinate (sodium salt) pH 3.0, 60° C., Day 0): 96 µg/mL
- Phentolamine Concentration ([2]; 50 mM Succinate (sodium salt) pH 3.0, 60° C., Day 2): 88 µg/mL
- Phentolamine Concentration ([2]; 50 mM Succinate (sodium salt) pH 3.0, 60° C., Day 7): 74 µg/mL
- Phentolamine Concentration ([2]; 50 mM Succinate (sodium salt) pH 3.0, 60° C., Day 14): 64 µg/mL
- rank of buffer preference based on amount of phentolamine recovered at the end of the study ([2]; pH 3, 60° C., 14 days): sodium acetate>no buffer (water with pH adjusted to pH 3)>sodium phosphate>sodium lactate>sodium succinate>sodium citrate
- duration of anesthesia [3]: reduction in the duration of anesthesia with increasing amounts

— patent US20030236306A1, “Stabilized formulations of alpha adrenergic receptor antagonists and the uses thereof” (priority 2002, published 2003)
